Values quoted from earlier work in US20110208118A1, “COMPOSITIONS AND MEANS FOR TREATING UTERINE LEIOMYOMATA, LEIOMYOMA, MYOMA, UTERINE FIBROIDS, ENDOMETRIOSIS, ADENOMYOSIS AND RELATED DISORDERS BY MIFEPRISTONE” (Bio-Pro Medical Ltd., priority 2007, published 2011).

Test system: uterine leiomyomata
[1] = oral mifepristone doses of 5 mg-50 mg

CC#C[C@]1(O)CC[C@H]2[C@@H]3CCC4=CC(=O)CCC4=C3[C@@H](c3ccc(N(C)C)cc3)C[C@@]21C [mifepristone]
Reduction in volume of leiomyomata, 10 mg vs 20 mg groups (10 mg and 20 mg mifepristone daily for 12 weeks, women with large leiomyomata (Yang et al.)): equivalent in the two groups | regression in the size of uterine leiomyomata (5, 25, and 50 mg of mifepristone daily for 12 weeks (Murphy et al.)): clinically significant regression | uterine and uterine fibroids size [1]: reduction in uterine and uterine fibroids size | uterine fibroids symptoms [1]: improvement in uterine fibroids symptoms
